Data taken from patent publication US11957684B2, “Treatment of heavy menstrual bleeding associated with uterine fibroids” (Sumitomo Pharma Switzerland GmbH, priority 2016, dated 2024).
“And” between values parts separate entries of the source, which are not always exact repeats. Identical values can stand only once.

Test system: heavy menstrual bleeding associated with uterine fibroids
Assay: Example 5A 12-week placebo-controlled study in uterine fibroids: efficacy (PBAC, volumes, NRS, UFS-QOL, anemia parameters)
Format: in vivo, human
Experimental: Study participants were Japanese women with HMB (heavy menstrual bleeding) associated with UF (uterine fibroids).
Only the largest myomas among those measurable at Visit 1 were measured throughout the study.
During the period between Visit 2 and 3, in which subjects must have experienced at least 1 regular menstrual cycle, the baseline values concerning efficacy evaluation, including PBAC scores and pain symptoms, were collected. The baseline PBAC score is the total PBAC score for the entire menstrual cycle immediately before Visit 3.
Visit 3 was on Days 1 to 5 of the second menstrual cycle after Visit 1. From Visits 3 to 7, subjects tried to visit the clinics in a fasted state and before taking the study drug.
When a dose was missed before breakfast, subjects took the study drug 30 minutes before either dinner or lunch on the same day.
Pain symptoms, other clinical symptoms and QOL were measured as secondary endpoints. Pain symptoms were evaluated in the patient diary from Visit 1 to the day before Visit 7 using the NRS score. The UFS-QOL score was used to evaluate other clinical symptoms and the QOL of subjects. Subjects completed the UFS-QOL questionnaire at Visits 3, 5, 6 and 7.
In particular, FIGS. 50-52 tabulate hemoglobin concentrations; FIG. 53 tabulates hematocrit percentages; FIG. 54 tabulates serum iron concentrations; and FIG. 55 tabulates ferritin concentrations.
PBAC scores were used in Example 5A, and provide an estimate of menstrual blood loss volume. The PBAC score was evaluated by having subjects record details related to menstrual blood loss on a PBAC score sheet distributed by the sponsor during the treatment period. […] These items represent the level of stained sanitary materials over the course of a menstrual cycle, with a total score ranging from 0 (none) to infinity. Higher scores indicate heavier blood loss. The PBAC score sheet also allows subjects to indicate: whether they experienced bleeding between periods that required sanitary protection; whether they passed clots, and if so, approximate size of the clots; whether they experienced episodes of flooding; and whether they required double protection (used both a pad and tampon simultaneously). As used in the PBAC score sheet of Example 5A, flooding is defined as overflowing, or staining, of clothing or underwear due to menstrual bleeding.
The total PBAC score was derived by summing points for each of the above.
All myoma and uterine volumes referred to herein were evaluated using transvaginal ultrasound. Specifically, the myoma volumes were calculated using the following formula: D1×D2×D3×π/6, where D1 is the longest diameter of the myoma; D2 is the longest diameter of the myoma at an angle perpendicular to D1; and D3 is the diameter of the myoma crossing the intersection of D1 and D2 perpendicular to the D1/D2 plane.

[1] = 10 mg, Week 6-12, listed as Relugolix
[2] = 10 mg, Week 12, listed as Relugolix
[3] = 20 mg, Week 6-12, listed as Relugolix
[4] = 20 mg, Week 12, listed as Relugolix
[5] = 40 mg, Week 6-12, listed as Relugolix
[6] = 40 mg, Week 12, listed as Relugolix

CONC(=O)Nc1ccc(-c2sc3c(c2CN(C)C)c(=O)n(-c2ccc(OC)nn2)c(=O)n3Cc2c(F)cccc2F)cc1 [Compound 1, N-(4-(1-(2,6-difluorobenzyl)-5-((dimethylamino)methyl)-3-(6-methoxy-3-pyridazinyl)-2,4-dioxo-1,2,3,4-tetrahydrothieno[2,3-d]pyrimidin-6-yl)phenyl)-N′-methoxyurea]
Amenorrhea (PBAC from Week 6 to 12 was 0), number of patients (10 mg (n = 48)): 8 n
complete response rate, uterine fibroids (10 mg or 20 mg): 21-44%
myoma volume (10 mg, Week 2): 116.68±152.833 cm^3
uterine volume (10 mg, Week 2): 305.07±265.810 cm^3
NRS score (10 mg, Week 2-6): 0.67±1.228
subjects who achieved amenorrhea (PBAC = 0) (10 mg, Week 2-6): 12.5%
subjects with total PBAC score <10 (10 mg, Week 2-6): 16.7%
NRS score (10 mg, Week 2-12): 0.63±1.217
subjects who achieved amenorrhea (PBAC = 0) (10 mg, Week 2-12): 10.4%
subjects with total PBAC score <10 (10 mg, Week 2-12): 12.5%
Fe value (serum iron) (10 mg, Week 4): 72.8 ± 40.58 µg/dL
Ht value (10 mg, Week 4): 39.48±3.327%
UFS-QOL HRQL total score (10 mg, Week 4): 11.28±10.342
UFS-QOL symptom severity score (10 mg, Week 4): 23.78±14.736
ferritin value (10 mg, Week 4): 14.71 ± 16.372 ng/mL
myoma volume (10 mg, Week 4): 90.89±108.009 cm^3
uterine volume (10 mg, Week 4): 258.10±171.703 cm^3
change of total PBAC score from baseline (10 mg, Week 6-12): −1.4±222.94
subjects who achieved amenorrhea (PBAC = 0) (10 mg, Week 6-12): 16.7%
subjects with total PBAC score <10 (10 mg, Week 6-12): 20.8%
total PBAC score (mean±SD) (10 mg, Week 6-12): 268.0±276.37
NRS score [1]: 0.6
subjects who achieved amenorrhea (PBAC = 0) [1]: (16.7) %
Fe value (serum iron) (10 mg, Week 8): 67.3 ± 34.74 µg/dL
Ht value (10 mg, Week 8): 39.43±3.154%
UFS-QOL HRQL total score (10 mg, Week 8): 13.39±13.179
UFS-QOL symptom severity score (10 mg, Week 8): 24.55±16.105
myoma volume (10 mg, Week 8): 97.47±117.339 cm^3
uterine volume (10 mg, Week 8): 259.64±190.452 cm^3
Fe value (serum iron) (10 mg, Week 12): 75.3 ± 46.94 µg/dL
Ht value (10 mg, Week 12): 39.37±3.639%
UFS-QOL HRQL total score (10 mg, Week 12): 13.01±13.270
UFS-QOL HRQL total, change from baseline (10 mg, Week 12): −1.61±10.586
UFS-QOL symptom severity score (10 mg, Week 12): 23.28±16.053
UFS-QOL symptom severity, change from baseline (10 mg, Week 12): −6.51±18.122
change of Fe value from baseline (10 mg, Week 12): 11.0 ± 42.94 µg/dL
change of Hb from baseline (10 mg, Week 12): 0.35 ± 1.055 g/dL
change of Ht value from baseline (10 mg, Week 12): 0.77±2.792%
change of ferritin value from baseline (10 mg, Week 12): -2.56 ± 6.833 ng/mL
ferritin value (10 mg, Week 12): 10.81 ± 9.489 ng/mL
myoma volume (10 mg, Week 12): 97.09±126.578 cm^3
percent change of myoma volume from baseline (10 mg, Week 12): −22.63±29.539%
percent change of uterine volume from baseline (10 mg, Week 12): −12.10±29.936%
uterine volume (10 mg, Week 12): 252.93±175.064 cm^3
UFS-QOL HRQL total, change from baseline [2]: −2
UFS-QOL symptom severity, change from baseline [2]: −7
change of Hb from baseline [2]: 0.3 g/dL
percent change of myoma volume from baseline [2]: −23%
percent change of uterine volume from baseline [2]: −12%
Amenorrhea (PBAC from Week 6 to 12 was 0), number of patients (20 mg (n = 56)): 21 n
myoma volume (20 mg, Week 2): 98.63±112.118 cm^3
uterine volume (20 mg, Week 2): 294.81±269.990 cm^3
NRS score (20 mg, Week 2-6): 0.48±0.970
subjects who achieved amenorrhea (PBAC = 0) (20 mg, Week 2-6): 33.9%
subjects with total PBAC score <10 (20 mg, Week 2-6): 42.9%
NRS score (20 mg, Week 2-12): 0.44±0.855
subjects who achieved amenorrhea (PBAC = 0) (20 mg, Week 2-12): 28.6%
subjects with total PBAC score <10 (20 mg, Week 2-12): 32.1%
Fe value (serum iron) (20 mg, Week 4): 77.4 ± 49.74 µg/dL
Ht value (20 mg, Week 4): 40.06±3.773%
UFS-QOL HRQL total score (20 mg, Week 4): 11.10±13.829
UFS-QOL symptom severity score (20 mg, Week 4): 23.12±14.327
ferritin value (20 mg, Week 4): 14.77 ± 11.536 ng/mL
myoma volume (20 mg, Week 4): 101.51±132.419 cm^3
uterine volume (20 mg, Week 4): 291.73±327.844 cm^3
NRS score (20 mg, Week 6-12): 0.35±0.618
change of total PBAC score from baseline (20 mg, Week 6-12): −153.0±194.83
subjects who achieved amenorrhea (PBAC = 0) (20 mg, Week 6-12): 38.2%
subjects with total PBAC score <10 (20 mg, Week 6-12): 43.6%
NRS score [3]: 0.4
subjects who achieved amenorrhea (PBAC = 0) [3]: (38.2) %
Fe value (serum iron) (20 mg, Week 8): 84.2 ± 49.42 µg/dL
Ht value (20 mg, Week 8): 40.39±3.389%
UFS-QOL HRQL total score (20 mg, Week 8): 9.54±10.904
UFS-QOL symptom severity score (20 mg, Week 8): 18.53±13.304
ferritin value (20 mg, Week 8): 16.34 ± 15.659 ng/mL
myoma volume (20 mg, Week 8): 86.34±103.084 cm^3
uterine volume (20 mg, Week 8): 290.93±413.549 cm^3
Fe value (serum iron) (20 mg, Week 12): 85.7 ± 44.40 µg/dL
Ht value (20 mg, Week 12): 40.54±3.003%
UFS-QOL HRQL total score (20 mg, Week 12): 9.63±12.735
UFS-QOL HRQL total, change from baseline (20 mg, Week 12): −2.11±10.529
UFS-QOL symptom severity score (20 mg, Week 12): 16.56±14.024
UFS-QOL symptom severity, change from baseline (20 mg, Week 12): −8.97±15.530
change of Fe value from baseline (20 mg, Week 12): 24.7 ± 53.53 µg/dL
change of Hb from baseline (20 mg, Week 12): 0.83 ± 1.161 g/dL
change of Ht value from baseline (20 mg, Week 12): 2.31±3.522%
change of ferritin value from baseline (20 mg, Week 12): 3.50 ± 10.229 ng/mL
ferritin value (20 mg, Week 12): 18.03 ± 14.427 ng/mL
myoma volume (20 mg, Week 12): 75.09±89.699 cm^3
percent change of myoma volume from baseline (20 mg, Week 12): −36.69±32.631%
percent change of uterine volume from baseline (20 mg, Week 12): −27.70±28.787%
uterine volume (20 mg, Week 12): 259.44±322.759 cm^3
UFS-QOL HRQL total, change from baseline [4]: −2
UFS-QOL symptom severity, change from baseline [4]: −9
change of Hb from baseline [4]: 0.8 g/dL
percent change of myoma volume from baseline [4]: −37%
percent change of uterine volume from baseline [4]: −28%
Amenorrhea (PBAC from Week 6 to 12 was 0), number of patients (40 mg (n = 55)): 40 n
myoma volume (40 mg, Week 2): 109.29±132.534 cm^3
uterine volume (40 mg, Week 2): 293.51±288.596 cm^3
NRS score (40 mg, Week 2-6): 0.29±0.564
subjects who achieved amenorrhea (PBAC = 0) (40 mg, Week 2-6): 54.5%
subjects with total PBAC score <10 (40 mg, Week 2-6): 65.5%
NRS score (40 mg, Week 2-12): 0.27±0.535
subjects with total PBAC score <10 (40 mg, Week 2-12): 61.8%
Fe value (serum iron) (40 mg, Week 4): 77.6 ± 44.81 µg/dL
Ht value (40 mg, Week 4): 39.44±4.012%
UFS-QOL HRQL total score (40 mg, Week 4): 11.31±12.082
UFS-QOL symptom severity score (40 mg, Week 4): 24.10±16.141
ferritin value (40 mg, Week 4): 15.14 ± 15.133 ng/mL
myoma volume (40 mg, Week 4): 100.04±139.060 cm^3
uterine volume (40 mg, Week 4): 267.74±275.256 cm^3
NRS score (40 mg, Week 6-12): 0.25±0.542
change of total PBAC score from baseline (40 mg, Week 6-12): −238.7±203.34
subjects who achieved amenorrhea (PBAC = 0) (40 mg, Week 6-12): 72.7% and 73%
subjects with total PBAC score <10 (40 mg, Week 6-12): 83.6%
total PBAC score (mean±SD) (40 mg, Week 6-12): 21.3±56.11
NRS score [5]: 0.2
subjects who achieved amenorrhea (PBAC = 0) [5]: (72.7) %
Fe value (serum iron) (40 mg, Week 8): 78.2 ± 41.91 µg/dL
Ht value (40 mg, Week 8): 40.23±3.620%
UFS-QOL HRQL total score (40 mg, Week 8): 11.20±12.279
UFS-QOL symptom severity score (40 mg, Week 8): 18.08±15.187
ferritin value (40 mg, Week 8): 18.10 ± 16.177 ng/mL
myoma volume (40 mg, Week 8): 86.01±120.639 cm^3
uterine volume (40 mg, Week 8): 224.91±227.442 cm^3
Fe value (serum iron) (40 mg, Week 12): 82.0 ± 36.93 µg/dL
Ht value (40 mg, Week 12): 40.53±3.307%
UFS-QOL HRQL total score (40 mg, Week 12): 9.52±10.885
UFS-QOL HRQL total, change from baseline (40 mg, Week 12): −5.52±15.871
UFS-QOL symptom severity score (40 mg, Week 12): 14.05±15.272
UFS-QOL symptom severity, change from baseline (40 mg, Week 12): −11.25±17.274
change of Fe value from baseline (40 mg, Week 12): 25.5 ± 44.43 µg/dL
change of Hb from baseline (40 mg, Week 12): 0.92 ± 1.183 g/dL
change of Ht value from baseline (40 mg, Week 12): 2.46±3.445%
change of ferritin value from baseline (40 mg, Week 12): 8.91 ± 13.131 ng/mL
ferritin value (40 mg, Week 12): 21.84 ± 21.509 ng/mL
myoma volume (40 mg, Week 12): 77.88±110.873 cm^3
percent change of myoma volume from baseline (40 mg, Week 12): −38.59±34.197%
percent change of uterine volume from baseline (40 mg, Week 12): −40.90±37.233%
uterine volume (40 mg, Week 12): 208.03±209.312 cm^3
UFS-QOL HRQL total, change from baseline [6]: −6
UFS-QOL symptom severity, change from baseline [6]: −11
change of Hb from baseline [6]: 0.9 g/dL
percent change of myoma volume from baseline [6]: −39%
percent change of uterine volume from baseline [6]: −41%
